{
  "source": "patent US20240415878A1",
  "about": "“Compositions and Methods for Modulating Mitochondrial Function” (Board of Regents, The University of Texas System, priority 2021, published 2024)",
  "key": {"HIF-1α": {"test_system": "HIF-1α", "settings": "for HIF-1α stabilization: higher concentrations causing increased stabilization", "description": "HIF-1α is stabilized in Mrs2−/− mice. To examine the intrinsic role of Mrs2, Mrs2^−/− mice were challenged to LPS-induced inflammatory response. It was noticed that there was a barely detectable HIF-1α stabilization in control but a significant HIF-1α protein accumulation following LPS stimulation in Mrs2^−/− hepatocytes (Daw et al., 2020). […] It was envisioned that loss of Mrs2 in hepatocyte mitochondria might control metabolite fluxes that regulates HIF-1α stability under normoxic conditions. HIF-1α is the most commonly studied transcription factor that responds to oxygen tension and its stabilization controls numerous metabolic cascades, including glycolysis and oxidative phosphorylation (Kaelin and Ratcliffe, 2008; Lum et al., 2007; Semenza, 2013). A targeted metabolite screen was conducted to identify whether these metabolites potentially altered in Mrs2^−/− control HIF-1α stabilization. WT hepatocytes were treated with the PHD inhibitor FG-4952 for 6 hours in the presence or absence of metabolites (Buckley et al., 2012). […] Next it was explored whether citric acid mediated HIF-1α destabilization is a hydroxylation dependent mechanism by reconstitution of hydroxylation-dead mutant HIF-1α in COS-7 cells (Yan et al., 2007). […] Next tested the potency of citric acid and sodium citrate was tested. Hepatocytes isolated from WT or Mrs2^−/− mice were treated for 6 hours. HIF-1α stabilization was less affected by di- or tri-sodium citrate than by citric acid (FIG. 9G). […] The citric acid-mediated HIF-1α destabilization was intact in multiple chemical modalities (FIG. 9H) and the intracellular chelation of Mg^2+ ions suppressed FG-4952-induced HIF-1α stabilization (FIG. 9I). […] Furthermore, COS-7 cells were more sensitive to the HIF-1α stabilizing effect compared to hepatocytes. […] Next HIF-1α abundance was tested in liver tissues harvested from dietary cohorts. HIF-1α protein expression/stabilization was prominent in both Mrs2^−/− and Mrs2^−/− WD, whereas HIF-1α protein was nearly completely absent in WT WD (FIG. 9M). This supports the elevation of HIF-1α protein level as a key mechanism driving transcription changes in Mrs2^−/− WD livers.\nImmunoblotting. Crushed tissues were homogenized in lysis buffer (ThermoFisher) on ice for one minute (20-30 strokes) using an automatic Dounce homogenizer set to 2000 RPM. Whole cell lysate was prepared in lysis buffer (Abcam) using 3 sets of 3-second sonication (power level 3) intervals on ice. Protein concentration was estimated using Pierce BCA assay kit and samples were prepared and heated for 90° C. for 5 minutes. Equal amounts of protein were loaded and separated on 4%-12% Bis-Tris polyacrylamide gel (Thermo Fisher Scientific), transferred to a PVDF membrane, blocked for 1-2 h using 5% fat free skim milk, washed and finally, probed with corresponding antibodies as specified below. Antibodies were from Cell Signaling Technology (HIF-1α and Hydroxy HIF-1α dilution 1:3000, MCU dilution 1.5000, MICU1 dilution 1:3000), Abcam Abcam (CPT-1a, CPT-2, OXPHOS cocktail dilution 1:3000), ZYMED Laboratories (β-actin; dilution 1:1,000), and Amersham (secondary antibodies conjugated with peroxidase). Development was done using X-ray film using a series of timed exposures and Image J was used for densitometric analysis on scanned film images."}, "[1]": {"test_system": "mitochondrial Mg^2+ uptake", "assay": "Metabolite screen for ER Mg2+ depletion and mitochondrial Mg2+ uptake, Mag-Green confocal imaging of hepatocytes", "type": "cell-based, murine", "description": "Targeted Metabolite Screen Identifies Lactate as activator agonist for Mitochondrial Mg^2+ Uptake. To search for agonists that promote mitochondrial Mg^2+ ([Mg^2+]m) uptake, the inventors developed a cell-based confocal fluorescence imaging. As an initial feature, the inventors tested whether GPCR agonist-induced second messengers promote Mg^2+ dynamics. To discriminate intracellular Ca^2+ and Mg^2+ dynamics, MEFs were loaded with cell permeant Ca^2+ indicator, Fluo-4-AM or Mg^2+ indicator Mag green-AM followed by GPCR agonist, thrombin stimulation. […] It is established that intracellular Ca^2+ dynamics could be monitored using a wide range of fluorescent dyes or genetically encoded Ca^2+ indicators. Conversely, Mg^2+ sensitive indicators are very limited due to either lack of agonists or robust dynamic nature. To identify the agonist, primary murine hepatocytes were loaded with [Mg^2+]i indicator, cell permeant Mag Green-AM (5 μM). Subsequently, dye loaded hepatocytes were stimulated with major cellular metabolites and mitochondrial oxidative phosphorylation (OXPHOS) inhibitors following baseline recording. […] As depicted in FIG. 1B, the reciprocal mobilization of free Mg^2+ ion from ER to mitochondria was observed upon stimulation of Lactate (5 mM) in a temporal fashion. To confirm that lactate-induced Mag-Green signals are indeed measured from mitochondrial compartment, hepatocytes were simultaneously loaded with mitochondrial marker Mito-tracker Red and Mag-Green-AM (FIG. 1C-1F). […] Conversely, sodium lactate or lactic acid (5 mM) triggered a rapid depletion of ER signal with concomitant accumulation nucleus followed by mitochondrial elevation of Mag Green signal with a lag time of ˜25 s (FIG. 1D). Besides nucleotides such as ATP, citrate is also known to chelate free Mg^2+. Since ATP is cell impermeable, citrate (5 mM) was applied and intracellular Mg^2+ mobilization monitored. […] To exclude the possibility that acidic pH of medium by lactate could alter membrane polarization, the pH was normalized. Additionally, the inventors also tested whether both sodium lactate as well as lactic acid induce mitochondrial Mg^2+ uptake. Consistent with sodium form of lactate, lactic acid also elicited a rapid ER depletion followed by mitochondrial Mg^2+ influx indicating a lactate role as an activator of Mg^2+ dynamics. Thus, natural metabolite, lactate rapidly mobilizes ER Mg^2+ which led to cytosolic elevation resulting in activation mitochondrial Mg^2+ uptake.\nMitochondrial Mg^2+ Transporter is Temperature Sensitive. […] To assess optimal concentration of lactate required to trigger Mg^2+ depletion from ER compartment and mitochondrial Mg^2+ uptake, both ER-depletion and mitochondrial Mg^2+ uptake was measured in hepatocytes at 37° C. […] However, a consistent stronger response was perceived at 5 mM lactate stimulation (FIG. 2A and 2B). During these studies depletion of ER Mg^2+ was noticed at 37° C. and room temperature (25° C.) upon 5 mM lactate stimulation (FIG. 2C). Remarkably, mitochondrial Mg^2+ uptake was higher at 37° C. and had no effect at 25° C. showing a temperature sensitivity (FIG. 2D). Based on this experimental evidence, a wide range of temperatures were tested. To determine the temperature responsiveness, primary hepatocytes were kept between 25° C.-40° C. and cells were stimulated with 5 mM lactate. […] (FIG. 2F). Intriguingly, the lactate response was not seen at 25° C. or 30° C. (FIG. 2F).\nER-Dependent Efflux of Free Mg^2+ Promotes Mitochondrial Mg^2+ Uptake. […] Since extracellular delivery of lactate rapidly induces ER-depletion and subsequent mitochondrial uptake, it was asked whether rapid influx of lactate regulates this mechanism. Most mammalian cells utilize monocarboxylate transporters (MCT1-4) for plasma membrane lactate entry. To test this, primary hepatocytes were treated with MCT1 or MCT1/2 inhibitors for 60 minutes. […]"}, "MEFs": {"test_system": "MEFs", "assay": "Intracellular Ca2+ and Mg2+ dynamics in MEFs (Fluo-4-AM, Mag green-AM)", "type": "cell-based", "description": "Targeted Metabolite Screen Identifies Lactate as activator agonist for Mitochondrial Mg^2+ Uptake. To search for agonists that promote mitochondrial Mg^2+ ([Mg^2+]m) uptake, the inventors developed a cell-based confocal fluorescence imaging. As an initial feature, the inventors tested whether GPCR agonist-induced second messengers promote Mg^2+ dynamics. To discriminate intracellular Ca^2+ and Mg^2+ dynamics, MEFs were loaded with cell permeant Ca^2+ indicator, Fluo-4-AM or Mg^2+ indicator Mag green-AM followed by GPCR agonist, thrombin stimulation. […] It is established that intracellular Ca^2+ dynamics could be monitored using a wide range of fluorescent dyes or genetically encoded Ca^2+ indicators. Conversely, Mg^2+ sensitive indicators are very limited due to either lack of agonists or robust dynamic nature. To identify the agonist, primary murine hepatocytes were loaded with [Mg^2+]i indicator, cell permeant Mag Green-AM (5 μM). […] To confirm that lactate-induced Mag-Green signals are indeed measured from mitochondrial compartment, hepatocytes were simultaneously loaded with mitochondrial marker Mito-tracker Red and Mag-Green-AM (FIG. 1C-1F). […] Since ATP is cell impermeable, citrate (5 mM) was applied and intracellular Mg^2+ mobilization monitored. […]"}},
  "data": [
    {"compound": "[Cl][Co][Cl]", "note": "[CoCl2, cobalt chloride, reference compound]", "values": [
      {"measurement": "HIF-1α stabilization", "setting": "HIF-1α; hepatocytes", "result": "promoted HIF-α stabilization"}
    ]},
    {"compound": "COC(=O)CNC(=O)C(=O)OC", "note": "[DMOG, reference compound]", "values": [
      {"measurement": "HIF-1α stabilization", "setting": "HIF-1α; hepatocytes", "result": "promoted HIF-α stabilization"}
    ]},
    {"compound": "Cc1nc(C(=O)NCC(=O)O)c(O)c2ccc(Oc3ccccc3)cc12", "note": "[FG-4592, reference compound]", "values": [
      {"measurement": "HIF-1α stabilization", "setting": "HIF-1α; hepatocytes", "result": "promoted HIF-α stabilization"}
    ]},
    {"compound": "[Cl-].[Cl-].[Mg+2]", "note": "[Mg^2+]", "values": [
      {"measurement": "HIF-1α stabilization at high levels", "setting": "HIF-1α; 10 mM, normoxia", "result": "sufficient to promote low levels of HIF-1α stabilization"}
    ]},
    {"compound": "N#C/C(=C\\c1cn(-c2ccccc2)c2ccccc12)C(=O)O", "note": "[UK5099, reference compound]", "values": [
      {"measurement": "effect of blockade of mitochondrial pyruvate entry on HIF-1α stabilization", "setting": "HIF-1α; hepatocytes", "result": "did not prevent HIF-1α stabilization"}
    ]},
    {"compound": "O=C(O)CC(O)(CC(=O)O)C(=O)O", "note": "[citrate]", "values": [
      {"measurement": "effect on mitochondrial and ER Mg^2+ signals", "setting": "[1]; 5 mM", "result": "partly chelated both mitochondrial and ER Mg^2+ signals"}
    ]},
    {"compound": "CC(O)C(=O)O", "note": "(stereo not shown) [lactate]", "values": [
      {"measurement": "lactate-induced mitochondrial Mg^2+ uptake", "setting": "[1]; 5 mM, 25° C. or 30° C.", "result": "not seen"},
      {"measurement": "Lactate-induced ER Mg^2+ depletion", "setting": "[1]; 5 mM, 25° C.-40° C.", "result": "seen at all the indicated temperature range"},
      {"measurement": "lactate-induced mitochondrial Mg^2+ uptake", "setting": "[1]; 5 mM, 34° C. and 40° C.", "result": "sub-optimal"},
      {"measurement": "lactate-induced mitochondrial Mg^2+ uptake", "setting": "[1]; 5 mM, 37° C.", "result": "maximal"},
      {"measurement": "concentration that promotes ER depletion and partial uptake of Mg^2+ into mitochondria", "setting": "[1]; hepatocytes, 37° C.", "result": "≥ 2", "unit": "mM"},
      {"measurement": "ER Mag-Green signal depletion and mitochondrial Mg^2+ uptake", "setting": "[1]; metabolite screen, primary murine hepatocytes", "result": "rapid and robust depletion of ER Mag-Green signal followed by a subsequent elevation in the mitochondria"}
    ]},
    {"compound": "CC(O)C(=O)O", "note": "(stereo not shown) [lactic acid]", "values": [
      {"measurement": "lag time to mitochondrial elevation of Mag Green signal", "setting": "[1]; 5 mM", "result": "~25", "unit": "s"}
    ]},
    {"compound": "CC(O)C(=O)[O-].[Na+]", "note": "(stereo not shown) [sodium lactate]", "values": [
      {"measurement": "lag time to mitochondrial elevation of Mag Green signal", "setting": "[1]; 5 mM", "result": "~25", "unit": "s"}
    ]},
    {"compound": "thrombin", "values": [
      {"measurement": "cytosolic Ca^2+ mobilization", "setting": "MEFs; Fluo-4-AM", "result": "rapidly elicited cytosolic Ca^2+ mobilization"},
      {"measurement": "intracellular Mg^2+ dynamics", "setting": "MEFs; Mag green-AM", "result": "absent"}
    ]}
  ]
}
